From ChEMBL document CHEMBL1201862, “PubChem BioAssay data set” (2004)
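Exposure lasted 48 hours, with cells grown in 96-well plates and compounds tested at five concentrations. GI50 marks 50% less growth.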 The source made the active and inactive calls. Rule as the data show it: active = GI50 up to about 1.1 µM and inactive = higher. Where a SMILES comes first, the peptide text is derived from it. The star is where a group is joined. Fmoc = O=C(OCC1c2ccccc2-c2ccccc21)*; OBn = c1ccc(CO*)cc1; tBu = CC(C)(C)*

What was measured:
Test in all cases: inhibition of tumour cell growth, NCI panel, 48 h
[1] = test system: HCT-15
[2] = test system: CAKI-1
[3] = test system: UACC-62
[4] = test system: UACC-257
[5] = test system: Hs-578T
[6] = test system: DU-145
[7] = test system: SR
[8] = test system: T47D
[9] = test system: HL-60
[10] = test system: SNB-75
[11] = test system: LOX IMVI
[12] = test system: KM12
[13] = test system: UO-31
[14] = test system: OVCAR-4
[15] = test system: NCI-H522
[16] = test system: BT-549
[17] = test system: NCI/ADR-RES
[18] = test system: RXF 393
[19] = test system: MDA-MB-231
[20] = test system: ACHN

Structure (SMILES) | GI50 [1] [µM] | GI50 [2] | GI50 [3] | GI50 [4] | GI50 [5] | GI50 [6] | GI50 [7] | GI50 [8] | GI50 [9] | GI50 [10] | GI50 [11] | GI50 [12] | GI50 [13] | GI50 [14] | GI50 [15] | GI50 [16] | GI50 [17] | GI50 [18] | GI50 [19] | GI50 [20]
Cc1occc1C(=S)Nc1ccc(Cl)c(/C=N/OC(C)C)c1 | 17.4 | 17.3 µM (inactive) | 14.5 µM (inactive) | 22 µM (inactive) | 26.7 µM (inactive) | 24 µM (inactive) | 21.1 µM (inactive) | 12.1 µM (inactive) | 26.7 µM (inactive) | 25.1 µM (inactive) | 16 µM (inactive) | 20 µM (inactive) | 19.4 µM (inactive) | 24.9 µM (inactive) | 12.7 µM (inactive) | 18.2 µM (inactive) | 22.2 µM (inactive) | 21.3 µM (inactive) | 16.4 µM (inactive) | 21.2 µM (inactive)
O=c1cc(N=P(c2ccccc2)(c2ccccc2)c2ccccc2)n(-c2ccccc2)c(=O)n1-c1ccccc1 | 3.38 | 12.7 µM (inactive) | 11.4 µM (inactive) | 23.8 µM (inactive) | 18.2 µM (inactive) | 9.51 µM (inactive) | 4.28 µM (inactive) | 8.85 µM (inactive) | 5.06 µM (inactive) | 10.1 µM (inactive) | 8.77 µM (inactive) | 14.9 µM (inactive) | 4.92 µM (inactive) | 4.95 µM (inactive) | 14.4 µM (inactive) | 14.5 µM (inactive) | 21.8 µM (inactive) | 1.53 µM (inactive) | 8.18 µM (inactive) | 4.33 µM (inactive)
CC(C)(Cc1ccccc1)NC1=NCCO1 | > 100 | > 100 µM (inactive) | > 100 µM (inactive) | > 100 µM (inactive) | 76.4 µM (inactive) | > 100 µM (inactive) | > 100 µM (inactive) | > 10 µM (inactive) | > 100 µM (inactive) | 35.2 µM (inactive) | > 100 µM (inactive) | > 100 µM (inactive) | > 100 µM (inactive) | > 100 µM (inactive) | > 100 µM (inactive) | > 100 µM (inactive) | > 100 µM (inactive) | > 100 µM (inactive) | > 100 µM (inactive) | > 100 µM (inactive)
FC(F)(F)c1ccc2c(c1)nc(-c1ccc(Cl)cc1)n2CC1CCCN2CCCCC12 (stereo not given) | 14.4 | 17.1 µM (inactive) | 14.8 µM (inactive) | 14.9 µM (inactive) | 14 µM (inactive) | 14.9 µM (inactive) | 11.9 µM (inactive) | 16.7 µM (inactive) | 11.8 µM (inactive) | 6.84 µM (inactive) | 14.3 µM (inactive) | 15.8 µM (inactive) | 10.7 µM (inactive) | 15.8 µM (inactive) | 13.2 µM (inactive) | 14.4 µM (inactive) | 14.8 µM (inactive) | 13.9 µM (inactive) | 7.33 µM (inactive) | 14.8 µM (inactive)
O=C1OC(C2OC(=O)c3cc(O)c(O)c(O)c3-c3c(O)c(O)c4oc(=O)c5c(c(O)c(O)c6oc(=O)c3c4c65)-c3c(cc(O)c(O)c3O)C(=O)OCC2O)C2OC(=O)c3c(c(O)c(O)c(O)c3[C@H]2O)-c2c1cc(O)c(O)c2O (stereo not given in full) | 13.2 | 10.3 µM (inactive) | 22.9 µM (inactive) | 32 µM (inactive) | 38.6 µM (inactive) | 30.3 µM (inactive) | 15 µM (inactive) | 26.7 µM (inactive) | 13.7 µM (inactive) | 16.9 µM (inactive) | 11.5 µM (inactive) | 15.2 µM (inactive) | 16.4 µM (inactive) | 16.1 µM (inactive) | 17.1 µM (inactive) | 24 µM (inactive) | 21.8 µM (inactive) | 26.5 µM (inactive) | 13.5 µM (inactive) | 24.7 µM (inactive)
CC(OC(C)(C)C)C(NC(=O)OCC1c2ccccc2-c2ccccc21)C(=O)NC(Cc1ccccc1)C(=O)OCc1ccccc1 (stereo not given) (Fmoc-Thr(tBu)-Phe-OBn; configuration not given here) | > 100 | > 100 µM (inactive) | > 100 µM (inactive) | > 100 µM (inactive) | > 100 µM (inactive) | > 100 µM (inactive) | > 87.9 µM (inactive) | > 76.7 µM (inactive) | > 100 µM (inactive) | > 100 µM (inactive) | > 100 µM (inactive) | > 100 µM (inactive) | > 46.6 µM (inactive) | > 100 µM (inactive) | > 100 µM (inactive) | > 100 µM (inactive) | > 100 µM (inactive) | > 100 µM (inactive) | > 48.4 µM (inactive) | > 100 µM (inactive)
Cc1cc2cc3cc(C)c(N)cc3nc2cc1N [ACRIDINE YELLOW] | 0.597 | 0.791 µM (active) | 0.942 µM (active) | 3.85 µM (inactive) | 1.75 µM (inactive) | 0.647 µM (active) | 0.209 µM (active) | 0.865 µM (active) | 0.789 µM (active) | 1.53 µM (inactive) | 0.478 µM (active) | 0.508 µM (active) | 0.979 µM (active) | 0.566 µM (active) | 0.271 µM (active) | 5.52 µM (inactive) | 2.13 µM (inactive) | 1.15 µM (inactive) | 0.211 µM (active) | 0.365 µM (active)
